Among the data in patent US20230373985A1 (Origenis Gmbh, priority 2020, published 2023) are IC50 values, retold here.

For experiment [1], the target named is T1, wt human LRRK2, catalytic site (Homo sapiens, UniProt Q5S007).
T1 construct: 5 nM wt human LRRK2, catalytic site; purchased ThermoFisher
Put plainly: TR-FRET LanthaScreen Eu Kinase Binding Assay, LRRK2 wt. The conditions noted are these: one range stated for wt and G2019, read-out: IC50, Activity Toward LRRK2(Wt). The procedure: (§1) The basic protocol for TR-FRET LanthaScreen Eu Kinase Binding Assay inhibitor studies were performed as follows. LanthaScreen Kinase Binding Assays (ThermoFisher/USA) to evaluate inhibitors were performed by addition of 5 μL of test compound in corresponding DMSO dilutions/5 μl of kinase/antibody mixture, 5 μL of tracer into 384 well small volume plates. After incubation for 1 hour at room temperature, plates were read. Data analysis of emission ratios was according LanthaScreen Eu Kinase Binding Assay protocol.
(§2) Kinase and assay components were adjusted to final concentrations according to kit protocol. For LRRK2: 5 nM wt human LRRK2, catalytic site, or G2019S human LRRK2, catalytic site (ThermoFisher/USA), 2 nM Eu-Anti-GST Antibody, 10 nM Kinase Tracer 236 in 1× Kinase Buffer A. For NUAK1: 8 nM wt human NUAK1, full length (ThermoFisher/USA), 2 nM Eu-Anti-His Antibody, 5 nM Kinase Tracer 236 in 1× Kinase Buffer A.
Background: Time-resolved FRET reads energy transfer from a long-lived donor to a nearby acceptor.

In experiment [2] the target is T2, G2019S human LRRK2, catalytic site (Homo sapiens, UniProt Q5S007, G2019S).
T2 construct: G2019S human LRRK2, catalytic site; purchased ThermoFisher
T2 sequence (Q5S007 970-2527 G2019S limits assumed): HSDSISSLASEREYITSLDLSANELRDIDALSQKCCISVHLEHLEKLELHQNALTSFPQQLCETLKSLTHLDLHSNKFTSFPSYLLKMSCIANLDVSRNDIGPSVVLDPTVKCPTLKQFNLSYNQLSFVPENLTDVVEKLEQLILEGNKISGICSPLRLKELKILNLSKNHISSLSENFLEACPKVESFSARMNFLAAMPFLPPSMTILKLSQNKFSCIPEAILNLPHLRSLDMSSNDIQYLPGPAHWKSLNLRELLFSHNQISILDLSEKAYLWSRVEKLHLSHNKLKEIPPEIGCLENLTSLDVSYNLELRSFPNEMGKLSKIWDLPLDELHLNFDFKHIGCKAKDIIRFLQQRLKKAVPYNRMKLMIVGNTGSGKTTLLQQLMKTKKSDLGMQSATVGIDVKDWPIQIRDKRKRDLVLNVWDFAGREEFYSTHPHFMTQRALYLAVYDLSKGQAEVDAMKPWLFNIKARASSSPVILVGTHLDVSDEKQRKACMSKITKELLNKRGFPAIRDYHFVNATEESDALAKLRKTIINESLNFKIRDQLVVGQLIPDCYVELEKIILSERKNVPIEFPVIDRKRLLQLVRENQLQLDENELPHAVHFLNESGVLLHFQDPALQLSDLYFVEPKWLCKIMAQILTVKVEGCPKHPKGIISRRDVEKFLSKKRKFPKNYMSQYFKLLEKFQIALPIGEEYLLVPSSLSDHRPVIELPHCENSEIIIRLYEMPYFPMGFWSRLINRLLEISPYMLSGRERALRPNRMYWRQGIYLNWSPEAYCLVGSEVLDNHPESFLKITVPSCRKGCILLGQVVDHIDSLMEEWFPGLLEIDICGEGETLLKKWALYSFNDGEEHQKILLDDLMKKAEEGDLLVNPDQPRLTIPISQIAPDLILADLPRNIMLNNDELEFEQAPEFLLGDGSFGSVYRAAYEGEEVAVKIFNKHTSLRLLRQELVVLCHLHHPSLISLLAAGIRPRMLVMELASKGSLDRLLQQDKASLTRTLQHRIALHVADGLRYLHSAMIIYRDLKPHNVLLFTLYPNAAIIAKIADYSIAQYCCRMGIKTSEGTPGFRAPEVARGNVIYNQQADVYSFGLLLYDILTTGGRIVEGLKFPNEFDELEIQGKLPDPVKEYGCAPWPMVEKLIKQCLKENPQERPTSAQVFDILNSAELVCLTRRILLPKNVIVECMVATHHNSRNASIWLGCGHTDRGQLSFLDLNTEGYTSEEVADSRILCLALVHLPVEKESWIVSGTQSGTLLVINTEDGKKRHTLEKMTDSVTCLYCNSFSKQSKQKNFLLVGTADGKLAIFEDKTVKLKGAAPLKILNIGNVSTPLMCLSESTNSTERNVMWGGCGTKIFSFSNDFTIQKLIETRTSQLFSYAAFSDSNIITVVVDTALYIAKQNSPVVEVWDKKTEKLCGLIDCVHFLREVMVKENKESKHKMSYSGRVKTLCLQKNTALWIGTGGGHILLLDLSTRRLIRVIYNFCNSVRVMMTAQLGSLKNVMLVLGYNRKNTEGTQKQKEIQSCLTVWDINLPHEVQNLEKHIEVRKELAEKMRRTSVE
Put plainly: TR-FRET LanthaScreen Eu Kinase Binding Assay, LRRK2 G2019S. The conditions noted are these: LRRK2(G2019); one range stated for wt and G2019; read-out: IC50, Activity Toward LRRK2(G2019). The procedure: as §1, §2

Experiment [3] has as its target T3, wt human JAK1, catalytic site (Homo sapiens, UniProt P23458).
T3 construct: wt human JAK1, catalytic site; purchased ThermoFisher
The experiment in a line: HTRF KinEASE assay, JAK1. In kind it is biochemical. The note with it: 2.5 μM ATP; read-out: IC50, Activity Toward JAK1. An outline of the steps: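 Compounds in DMSO dilution were mixed with kinase, biotin-TK substrate and ATP and reacted for ≥30 min at room temperature. Detection reagents (antibody, streptavidin-XL665) were read 60 min later as HTRF, with emission ratios analysed per KinEASE protocol.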

The target in experiment [4] is T4, wt human TYK2, catalytic site (Homo sapiens, UniProt P29597).
T4 construct: wt human TYK2, catalytic site; purchased SignalChem
T4 sequence (P29597 897-1176 limits assumed): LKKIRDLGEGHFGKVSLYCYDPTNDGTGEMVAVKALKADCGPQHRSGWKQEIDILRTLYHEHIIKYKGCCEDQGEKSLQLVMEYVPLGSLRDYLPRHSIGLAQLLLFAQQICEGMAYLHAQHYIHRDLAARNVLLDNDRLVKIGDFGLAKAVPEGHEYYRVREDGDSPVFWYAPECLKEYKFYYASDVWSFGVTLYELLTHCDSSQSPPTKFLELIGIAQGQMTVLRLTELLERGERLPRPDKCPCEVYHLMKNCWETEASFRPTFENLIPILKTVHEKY
Put plainly: HTRF KinEASE assay, TYK2. Type of experiment: biochemical. The conditions noted are these: 1 μM ATP; read-out: IC50, Activity Toward TYK2. Put shortly: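 Kinase reaction run at room temperature for at least 30 min: 2 nM TYK2 with 1 μM ATP, or 1 nM JAK2 with 100 μM ATP, each with 1 μM biotin-TK substrate. Phosphorylation detected by HTRF (60 min antibody/XL665) and evaluated from emission ratios.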

T3 sequence (P23458 875-1153 limits assumed): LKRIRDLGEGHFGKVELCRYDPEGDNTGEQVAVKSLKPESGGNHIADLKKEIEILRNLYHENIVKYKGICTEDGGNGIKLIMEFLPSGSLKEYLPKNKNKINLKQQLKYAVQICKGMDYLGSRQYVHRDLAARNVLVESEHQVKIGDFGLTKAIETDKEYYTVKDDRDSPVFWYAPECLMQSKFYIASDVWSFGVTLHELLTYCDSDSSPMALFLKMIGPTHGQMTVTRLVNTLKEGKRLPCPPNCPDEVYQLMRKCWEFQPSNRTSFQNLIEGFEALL
T1 sequence (Q5S007 970-2527 limits assumed): as the sequence (Q5S007 970-2527 G2019S limits assumed) above, with S1050G counted along it

As a reminder, the IC50 is the concentration at which inhibition is half-maximal. Turning to `N#Cc1ccnnc1-c1ccc(Nc2cn(-c3c(Cl)cccc3Cl)nc2C(N)=O)cc1` [compound 60, 4-((4-(4-cyanopyridazin-3-yl)phenyl)amino)-1-(2,6-dichlorophenyl)-1H-pyrazole-3-carboxamide], the IC50 in experiment [1] fell in the range of 100 to 1000 nM; in experiment [2] it was 100 to 1000 nM; in experiment [3], 10 to 100 nM; in experiment [4], 10 to 100 nM.
Take `NC(=O)c1nn(-c2c(Cl)cccc2Cl)cc1Nc1ccc(-c2nnc3n2CCCCC3)cc1` [compound 63, 1-(2,6-dichlorophenyl)-4-((4-(6,7,8,9-tetrahydro-5H-[1,2,4]triazolo[4,3-a]azepin-3-yl)phenyl)amino)-1H-pyrazole-3-carboxamide]: the IC50 in experiment [1] lay in the range of 10 to 100 nM; in experiment [2], 10 to 100 nM; in experiment [3], 100 to 1000 nM; in experiment [4], 10 to 100 nM.
`CP(C)(=O)c1ccc(Nc2cn(-c3c(F)cccc3F)nc2C(N)=O)cc1` [compound 64, 1-(2,6-difluorophenyl)-4-((4-(dimethylphosphoryl)phenyl)amino)-1H-pyrazole-3-carboxamide]: the IC50 in experiment [1], in experiment [2], in experiment [3] and in experiment [4] was 100 to 1000 nM each time.
For the molecule `NC(=O)c1nn(-c2c(Cl)cccc2Cl)cc1Nc1ccc(-n2ncc3c2CCOC3)cc1` [compound 70, 1-(2,6-dichlorophenyl)-4-((4-(6,7-dihydropyrano[4,3-c]pyrazol-1(4H)-yl)phenyl)amino)-1H-pyrazole-3-carboxamide], the IC50 in experiment [1] fell in the range of 100 to 1000 nM; in experiment [2], 100 to 1000 nM; in experiment [3], 100 to 1000 nM; in experiment [4], 10 to 100 nM.
`NC(=O)c1nn(-c2c(Cl)cccc2Cl)cc1Nc1ccc(-n2cc3c(n2)CCOC3)cc1` [compound 71, 1-(2,6-dichlorophenyl)-4-((4-(6,7-dihydropyrano[4,3-c]pyrazol-2(4H)-yl)phenyl)amino)-1H-pyrazole-3-carboxamide]: the half-maximal inhibitory concentration (IC50) in experiment [1], in experiment [2], in experiment [3] and in experiment [4] was 100 to 1000 nM in each case.
Take `Cc1ccnn1-c1ccc(Nc2cn(-c3c(Cl)cccc3Cl)nc2C(N)=O)cc1` [compound 80, 1-(2,6-dichlorophenyl)-4-((4-(5-methyl-1H-pyrazol-1-yl)phenyl)amino)-1H-pyrazole-3-carboxamide]: the IC50 in experiment [1] lay within 100 to 1000 nM; in experiment [2], 100 to 1000 nM; in experiment [3], 10 to 100 nM; in experiment [4], 10 to 100 nM.
`NC(=O)c1nn(-c2c(Cl)cccc2Cl)cc1Nc1ccc(C(=O)N2CCN(CC(F)F)CC2)cc1` [compound 83, 1-(2,6-dichlorophenyl)-4-((4-(4-(2,2-difluoroethyl)piperazine-1-carbonyl)phenyl)amino)-1H-pyrazole-3-carboxamide]: the 50% inhibitory concentration (IC50) in experiment [1] is 100 to 1000 nM; in experiment [2], 100 to 1000 nM; in experiment [3], 100 to 1000 nM; in experiment [4], under 10 nM.
In the case of `NC(=O)c1nn(-c2c(Cl)cccc2Cl)cc1Nc1ccc(C(=O)N2CCN(C3CC3)CC2)cc1` [compound 84, 4-((4-(4-cyclopropylpiperazine-1-carbonyl)phenyl)amino)-1-(2,6-dichlorophenyl)-1H-pyrazole-3-carboxamide], the IC50 was 100 to 1000 nM in experiment [1], 100 to 1000 nM in experiment [2], 10 to 100 nM in experiment [3] and under 10 nM in experiment [4].
On to `CN1CCN(S(=O)(=O)c2ccc(Nc3cn(-c4c(Cl)cccc4Cl)nc3C(N)=O)cc2)CC1` [compound 85, 1-(2,6-dichlorophenyl)-4-((4-((4-methylpiperazin-1-yl)sulfonyl)phenyl)amino)-1H-pyrazole-3-carboxamide], for which the half-maximal inhibitory concentration (IC50) was 100 to 1000 nM in experiment [1], 100 to 1000 nM in experiment [2], 10 to 100 nM in experiment [3] and under 10 nM in experiment [4].
Turning to `CN1CCC(NS(=O)(=O)c2ccc(Nc3cn(-c4c(Cl)cccc4Cl)nc3C(N)=O)cc2)CC1` [compound 89, 1-(2,6-dichlorophenyl)-4-((4-(N-(1-methylpiperidin-4-yl)sulfamoyl)phenyl)amino)-1H-pyrazole-3-carboxamide], the IC50 in experiment [1] was 100 to 1000 nM; in experiment [2], 100 to 1000 nM; in experiment [3], 100 to 1000 nM; in experiment [4], under 10 nM.
As to `Cn1nc(C(F)(F)F)nc1-c1ccc(Nc2cn(-c3c(F)cccc3Cl)nc2C(N)=O)cc1` [compound 231, 1-(2-chloro-6-fluorophenyl)-4-((4-(1-methyl-3-(trifluoromethyl)-1H-1,2,4-triazol-5-yl)phenyl)amino)-1H-pyrazole-3-carboxamide], the half-inhibitory concentration (IC50) in experiment [1] is 100 to 1000 nM; in experiment [2] it was 100 to 1000 nM; in experiment [3], under 10 nM; in experiment [4], under 10 nM.
Consider `Cc1ccnn1-c1ccc(Nc2cn(-c3c(F)cccc3Cl)nc2C(N)=O)cc1` [compound 233, 1-(2-chloro-6-fluorophenyl)-4-((4-(5-methyl-1H-pyrazol-1-yl)phenyl)amino)-1H-pyrazole-3-carboxamide], for which the concentration for half-maximal inhibition (IC50) in experiment [1] is 100 to 1000 nM; in experiment [2], 100 to 1000 nM; in experiment [3], 10 to 100 nM; in experiment [4], 10 to 100 nM.
With `NC(=O)c1nn(-c2c(Cl)cccc2Cl)cc1Nc1ccc(C(=O)N2CCC(F)C2)cc1` (stereo not shown) [compound 246, 1-(2,6-dichlorophenyl)-4-((4-(3-fluoropyrrolidine-1-carbonyl)phenyl)amino)-1H-pyrazole-3-carboxamide], the IC50 in experiment [1] was 100 to 1000 nM; in experiment [2] it was 100 to 1000 nM; in experiment [3], 10 to 100 nM; in experiment [4] it was 10 to 100 nM.
For the molecule `NC(=O)c1nn(-c2c(Cl)cccc2Cl)cc1Nc1ccc(C(=O)N2CCC(F)(F)C2)cc1` [compound 247, 1-(2,6-dichlorophenyl)-4-((4-(3,3-difluoropyrrolidine-1-carbonyl)phenyl)amino)-1H-pyrazole-3-carboxamide], the IC50 in experiment [1] was 100 to 1000 nM; in experiment [2] it was 100 to 1000 nM; in experiment [3], 10 to 100 nM; in experiment [4], under 10 nM.
Consider `CCc1nnnn1-c1ccc(Nc2cn(-c3c(Cl)cccc3Cl)nc2C(N)=O)cc1` [compound 259, 1-(2,6-dichlorophenyl)-4-((4-(5-ethyl-1H-tetrazol-1-yl)phenyl)amino)-1H-pyrazole-3-carboxamide], for which the IC50 in experiment [1] is 100 to 1000 nM; in experiment [2] it was 100 to 1000 nM; in experiment [3], 10 to 100 nM; in experiment [4] it was under 10 nM.
For `Cc1cnccc1-c1ccc(Nc2cn(-c3c(Cl)cccc3Cl)nc2C(N)=O)cc1` [compound 260, 1-(2,6-dichlorophenyl)-4-((4-(3-methylpyridin-4-yl)phenyl)amino)-1H-pyrazole-3-carboxamide], the concentration for half-maximal inhibition (IC50) in experiment [1] lay within 100 to 1000 nM; in experiment [2] it was 100 to 1000 nM; in experiment [3], 10 to 100 nM; in experiment [4] it was 100 to 1000 nM.
Consider `Cc1c[n+]([O-])ccc1-c1ccc(Nc2cn(-c3c(Cl)cccc3Cl)nc2C(N)=O)cc1` [compound 267, 4-(4-((3-carbamoyl-1-(2,6-dichlorophenyl)-1H-pyrazol-4-yl)amino)phenyl)-3-methylpridine_1-oxide], for which the IC50 in experiment [1] was 100 to 1000 nM; in experiment [2] it was 100 to 1000 nM; in experiment [3] it was 10 to 100 nM; in experiment [4] it was 10 to 100 nM.
As for `NC(=O)c1nn(-c2c(Cl)cccc2Cl)cc1Nc1ccc(-c2nccn2CC(F)(F)F)cc1` [compound 268, 1-(2,6-dichlorophenyl)-4-((4-(1-(2,2,2-trifluoroethyl)-1H-imidazol-2-yl)phenyl)amino)-1H-pyrazole-3-carboxamide], the IC50 in experiment [1] was in the range of 100 to 1000 nM; in experiment [2] it was 100 to 1000 nM; in experiment [3] it was 10 to 100 nM; in experiment [4], 10 to 100 nM.
`NC(=O)c1nn(-c2c(Cl)cccc2Cl)cc1Nc1ccc(N2CCCS2(=O)=O)cc1` [compound 272, 1-(2,6-dichlorophenyl)-4-((4-(1,1-dioxidoisothiazolidin-2-yl)phenyl)amino)-1H-pyrazole-3-carboxamide]: the IC50 is 100 to 1000 nM in experiment [1], 100 to 1000 nM in experiment [2], 10 to 100 nM in experiment [3] and 100 to 1000 nM in experiment [4].
